Tests used:
[1] = tested on: T1, RALH (resorcylic acid lactone hydrolase); assay: LC-HRMS quantification of hydrolyzed product (HRAD), Michaelis-Menten fit; type: biochemical, Aeromicrobium sp. LRDC-1; conditions: 50 mM Tris-HCl pH 8.0, 1% BSA, 37 °C, 25 nM RALH, 5 min
T1 construct: recombinant, codon-optimized, E. coli BL21(DE3); N-terminal His6-MBP tag removed with TEV protease; homologue alignment 303/316 residues (RALH vs ZenH); catalytic triad Ser117, Asp142, His292

ScHsp82 (ScHSP82) = biological target: T2, ScHsp82 (ScHSP82) (Saccharomyces cerevisiae, UniProt P02829); assay: malachite green ATPase inhibition assay; type: biochemical; conditions: 1 mM ATP, 4% DMSO, 100 mM Tris-HCl pH 7.5, 20 mM KCl, 6 mM MgCl2, 37 °C, 3 h
T2 construct: gene HSP82; Ni-NTA and gel permeation

[2] = tested on: T1, RALH (resorcylic acid lactone hydrolase); assay: LC-HRMS quantification of hydrolyzed product (HZEN), Michaelis-Menten fit; type: biochemical, Aeromicrobium sp. LRDC-1; conditions: 50 mM Tris-HCl pH 8.0, 1% BSA, 37 °C, 25 nM RALH, 20 min

T2 sequence (P02829 whole entry): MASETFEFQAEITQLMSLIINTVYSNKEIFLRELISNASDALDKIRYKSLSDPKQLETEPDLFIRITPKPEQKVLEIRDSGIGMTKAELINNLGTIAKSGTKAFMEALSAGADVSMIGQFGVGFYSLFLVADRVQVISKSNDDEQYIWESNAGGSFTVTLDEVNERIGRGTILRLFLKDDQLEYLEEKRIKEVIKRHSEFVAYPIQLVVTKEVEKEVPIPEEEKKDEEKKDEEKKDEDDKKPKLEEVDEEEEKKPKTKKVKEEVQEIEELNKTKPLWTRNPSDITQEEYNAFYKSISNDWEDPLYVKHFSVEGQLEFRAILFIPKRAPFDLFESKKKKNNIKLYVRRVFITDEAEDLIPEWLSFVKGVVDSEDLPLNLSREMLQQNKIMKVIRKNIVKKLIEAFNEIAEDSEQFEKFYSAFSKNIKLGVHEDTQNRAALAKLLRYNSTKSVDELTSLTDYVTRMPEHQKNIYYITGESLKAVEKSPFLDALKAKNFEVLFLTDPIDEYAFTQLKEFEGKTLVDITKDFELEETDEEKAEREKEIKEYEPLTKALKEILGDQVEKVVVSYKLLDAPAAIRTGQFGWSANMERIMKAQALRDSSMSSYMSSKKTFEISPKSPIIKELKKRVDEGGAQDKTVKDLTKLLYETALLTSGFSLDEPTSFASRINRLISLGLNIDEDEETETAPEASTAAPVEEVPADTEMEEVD

SMILES | Km [1] [µM] | % decrease in ATPase activity at 50 μM (ScHsp82 (ScHSP82)) [%] | Km [2] [µM]
C[C@@H]1C[C@H]2O[C@@H]2/C=C\C=C\C(=O)Cc2c(Cl)c(O)cc(O)c2C(=O)O1 [III, RAD] | 1200 | – | –
C[C@H]1CCCC(=O)CCC/C=C/c2cc(O)cc(O)c2C(=O)O1 [I, ZEN] | – | 53 | 24

Reference: article PMC11435890, “Enzymatic Hydrolysis of Resorcylic Acid Lactones by an Aeromicrobium sp” (Toxins, 2024)
